According to patent publication US20140288044A1, “COMPOSITIONS AND THERAPEUTIC USES OF IKK-RELATED KINASE EPSILON AND TANKBINDING KINASE 1 INHIBITORS” (Alzheimer's Institute of America, Inc., priority 2011, published 2014):
Like-named read-outs stand apart in the source and are kept apart here.

What was measured:
[1] = biological target: T1, IKKε (Homo sapiens, UniProt Q14164); test: In-vitro IKKε kinase assay (radiolabelled ATP, filterplate); assay type: biochemical
T1 construct: His-tag (in-house Sf9 preparation) or GST-tag (purchased Invitrogen preparation); these are alternatives, not both on one protein; host or cells: Sf9 cells
T1 sequence (Q14164 1-716): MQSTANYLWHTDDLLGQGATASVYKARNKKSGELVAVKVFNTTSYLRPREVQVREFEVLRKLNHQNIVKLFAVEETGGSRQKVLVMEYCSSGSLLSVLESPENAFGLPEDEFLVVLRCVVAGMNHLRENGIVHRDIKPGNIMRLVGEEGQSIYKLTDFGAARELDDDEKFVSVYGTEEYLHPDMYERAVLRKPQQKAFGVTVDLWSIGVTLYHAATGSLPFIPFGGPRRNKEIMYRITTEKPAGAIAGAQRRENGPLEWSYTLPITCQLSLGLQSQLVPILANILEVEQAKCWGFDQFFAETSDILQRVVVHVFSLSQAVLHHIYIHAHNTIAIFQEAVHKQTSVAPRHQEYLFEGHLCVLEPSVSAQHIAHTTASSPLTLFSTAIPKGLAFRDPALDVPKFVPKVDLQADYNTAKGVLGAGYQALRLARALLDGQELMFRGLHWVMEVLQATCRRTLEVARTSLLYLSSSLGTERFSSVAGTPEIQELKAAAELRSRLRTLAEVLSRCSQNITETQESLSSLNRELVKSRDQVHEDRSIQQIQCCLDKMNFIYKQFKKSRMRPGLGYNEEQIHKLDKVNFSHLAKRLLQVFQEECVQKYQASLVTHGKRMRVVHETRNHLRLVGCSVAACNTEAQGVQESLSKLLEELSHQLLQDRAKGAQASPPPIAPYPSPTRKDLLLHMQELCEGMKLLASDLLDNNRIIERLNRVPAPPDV
In short: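 His-tagged IKKε from Sf9 cells or GST-tagged IKKε, with myelin basic protein, casein or dephosphorylated casein as substrate and 32 μM ATP (2× Km) plus [γ^33]ATP. "Normal" assay used 0.1 μg/ml enzyme; "sensitized" used 0.015 μg/ml with dephosphorylated casein only. Stopped after 30–45 min with phosphoric acid; P-81 filter counts normalized to DMSO after background subtraction.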

[2] = test system: IKKε-mediated phosphorylation of IRF3; test: ELISA for in-situ phosphorylation of IRF3 (phospho-Ser396) in HEK293T cells cotransfected with IRF3 and IKKε; assay type: cell-based; conditions: Homo sapiens, HEK-293T, 20 h, HEK293T cells, 20 hours, read-out: IC50, in-situ IKKε-mediated phosphorylation of IRF3
In short: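 HEK293T cells cotransfected with IRF3 and IKKε were treated with compound for 20 h, and lysates were assayed by ELISA for phospho-Ser396 IRF3, normalized to DMSO. Viability was checked in parallel by CellTiter-Glo. For TBK1, cells cotransfected with IRF7 and TBK1 were treated overnight and probed by Western blot for phospho-Ser477/Ser479 IRF7.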

[3] = "sensitized" assay, read-out: IC50, inhibition of the kinase activity of IKKε
[4] = in-vitro IKKε kinase inhibition assays, given as 0.005 μM (5 nM), read-out: IKKε kinase inhibitory activity (IC50 value)
[5] = range given from about 1 μM to about 250 nM

SMILES	IC50 [1, 3] [nM]	IC50 [2] [nM]	IC50 [1, 4] [nM]	IC50 [2, 5] [nM]
CN(Cc1ccc(Nc2nccc(-c3ccc(OC4CCOCC4)c(C#N)c3)n2)cn1)S(C)(=O)=O [Example Compound 206, N-{[5-({4-[3-Cyano-4-(tetrahydro-2H-pyran-4-yloxy)phenyl]pyrimidin-2-yl}amino)pyridin-2-yl]methyl}-N-methylmethanesulfonamide]	< 5	< 100	–	–
N#Cc1cc(-c2ccnc(Nc3ccc(-n4ccnc4)nc3)n2)ccc1OC1CCOCC1 [Example Compound 75, 5-(2-{[6-(1H-Imidazol-1-yl)pyridin-3-yl]amino}pyrimidin-4-yl)-2-(tetrahydro-2H-pyran-4-yloxy)benzonitrile]	–	< 100	< 5	–
N#Cc1cc(-c2ccnc(Nc3ccnc(N4CCN(CCO)CC4)c3)n2)ccc1NC(=O)C1CC1 [Example Compound 143, N-{2-Cyano-4-[2-({2-[4-(2-hydroxyethyl)piperazin-1-yl]pyridin-4-yl}amino)pyrimidin-4-yl]phenyl}cyclopropanecarboxamide]	< 5	< 100	< 5	–
N#Cc1cc(-c2ccnc(Nc3ccncc3)n2)ccc1OC1CCOCC1 [Example Compound 34, 5-[2-(Pyridin-4-ylamino)pyrimidin-4-yl]-2-(tetrahydro-2H-pyran-4-yloxy)benzonitrile]	< 5	–	< 5	250 to 1000
COC1CN(C(=O)c2ncc(Nc3nccc(-c4ccc(OC5CCOCC5)c(C#N)c4)n3)n2C)C1 [Example Compound 102, 5-[2-({2-[(3-Methoxyazetidin-1-yl)carbonyl]-1-methyl-1H-imidazol-5-yl}amino)pyrimidin-4-yl]-2-(tetrahydro-2H-pyran-4-yloxy)benzonitrile]	< 5	100 to 250	< 5	–
N#Cc1cc(-c2ccnc(Nc3ccnc(N4CC(O)C4)c3)n2)ccc1OC1CCOCC1 [Example Compound 41, 5-(2-{[2-(3-Hydroxyazetidin-1-yl)pyridin-4-yl]amino}pyrimidin-4-yl)-2-(tetrahydro-2H-pyran-4-yloxy)benzonitrile]	< 5	100 to 250	< 5	–
N#Cc1cc(-c2ccnc(Nc3ccnc(N4CC(O)C4)c3)n2)ccc1OC1CCN(C(=O)CO)CC1 [Example Compound 240, 2-{[1-(Hydroxyacetyl)piperidin-4-yl]oxy}-5-(2-{[2-(3-hydroxyazetidin-1-yl)pyridin-4-yl]amino}pyrimidin-4-yl)benzonitrile]	< 5	1000 to 5000	–	–
CCN(CC)c1ccc(Nc2nccc(-c3ccc(O[C@@H]4CCN(C(=O)CO)C4)c(C#N)c3)n2)cn1 [Example Compound 117, 5-(2-{[6-(Diethylamino)pyridin-3-yl]amino}pyrimidin-4-yl)-2-{[(3R)-1-(hydroxyacetyl)pyrrolidin-3-yl]oxy}benzonitrile]	< 5	–	< 5	250 to 1000
N#Cc1cc(-c2ccnc(Nc3ccnc(N4CCC[C@@H]4CO)c3)n2)ccc1OC1CCOCC1 [Example Compound 37, 5-[2-({2-[(2R)-2-(Hydroxymethyl)pyrrolidin-1-yl]pyridin-4-yl}amino)pyrimidin-4-yl]-2-(tetrahydro-2H-pyran-4-yloxy)benzonitrile]	–	100 to 250	< 5	–
CC(c1ccc(Nc2nccc(-c3ccc(OC4CCOCC4)c(C#N)c3)n2)cn1)N1CC(O)C1 (stereo not shown) [Example Compound 63, 5-[2-({6-[1-(3-Hydroxyazetidin-1-yl)ethyl]pyridin-3-yl}amino)pyrimidin-4-yl]-2-(tetrahydro-2H-pyran-4-yloxy)benzonitrile]	–	100 to 250	< 5	–
COC1CN(c2cc(Nc3nccc(-c4ccc(OC5CCOCC5)c(C#N)c4)n3)ccn2)C1 [Example Compound 43, 5-(2-{[2-(3-Methoxyazetidin-1-yl)pyridin-4-yl]amino}pyrimidin-4-yl)-2-(tetrahydro-2H-pyran-4-yloxy)benzonitrile]	< 5	< 100	< 5	–
